Results reported in US8063099B2, “Trans-3-aza-bicyclo[3.1.0]hexane derivatives” (Actelion Pharmaceuticals Ltd., priority 2007, dated 2011).

What was measured:
human orexin-1 receptor = molecular target: T1, human orexin-1 receptor (Homo sapiens, UniProt O43613); experiment: Intracellular calcium measurements (FLIPR), orexin receptor antagonistic activity; assay type: cell-based; settings: FLIPR2; CHO cells expressing human orexin-1 receptor; 3 nM orexin-A; read-out: OX1 IC50
T1 construct: expressed in transfected cells; host or cells: Chinese hamster ovary (CHO) cells, G418 selection
T1 sequence (O43613 1-425): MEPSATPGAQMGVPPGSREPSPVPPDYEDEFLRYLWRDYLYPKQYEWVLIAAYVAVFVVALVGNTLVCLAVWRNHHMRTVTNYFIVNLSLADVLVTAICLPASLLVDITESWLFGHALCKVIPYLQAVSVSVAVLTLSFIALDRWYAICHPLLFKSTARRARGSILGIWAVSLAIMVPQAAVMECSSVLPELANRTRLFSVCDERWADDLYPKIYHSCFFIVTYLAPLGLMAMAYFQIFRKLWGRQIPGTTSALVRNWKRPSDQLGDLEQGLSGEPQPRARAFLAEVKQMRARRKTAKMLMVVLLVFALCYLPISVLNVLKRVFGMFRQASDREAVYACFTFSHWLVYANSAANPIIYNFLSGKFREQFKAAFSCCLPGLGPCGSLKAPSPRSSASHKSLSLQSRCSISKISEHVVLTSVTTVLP
Description: (§1) The orexin receptor antagonistic activity of the compounds of formula (I) is determined in accordance with one of the following experimental methods.
(§2) Intracellular Calcium Measurements:
(§3) Chinese hamster ovary (CHO) cells expressing the human orexin-1 receptor and the human orexin-2 receptor, respectively, are grown in culture medium (Ham F-12 with L-Glutamine) containing 300 μg/ml G418, 100 U/ml penicillin, 100 μg/ml streptomycin and 10% heat inactivated fetal calf serum (FCS). The cells are seeded at 20'000 cells/well into 384-well black clear bottom sterile plates (Greiner). The seeded plates are incubated overnight at 37° C. in 5% CO2.
(§4) Human orexin-A as an agonist is prepared as 1 mM stock solution in MeOH:water (1:1), diluted in HBSS containing 0.1% bovine serum albumin (BSA), NaHCO3:0.375 g/l and 20 mM HEPES for use in the assay at a final concentration of 3 nM.
(§5) Antagonists are prepared as 10 mM stock solution in DMSO, then diluted in 384-well plates, first in DMSO, then in HBSS containing 0.1% bovine serum albumin (BSA), NaHCO3: 0.375 g/l and 20 mM HEPES.
(§6) On the day of the assay, 50 μl of staining buffer (HBSS containing 1% FCS, 20 mM HEPES, NaHCO3: 0.375 g/l, 5 mM probenecid (Sigma) and 3 μM of the fluorescent calcium indicator fluo-4 AM (1 mM stock solution in DMSO, containing 10% pluronic) is added to each well.
(§7) The 384-well cell-plates are incubated for 50 min at 37° C. in 5% CO2 followed by equilibration at RT for 30-120 min before measurement.
(§8) Within the Fluorescent Imaging Plate Reader (FLIPR2 or FLIPR Tetra, Molecular Devices), antagonists are added to the plate in a volume of 10 μl/well, incubated for 10 min and finally 10 μl/well of agonist is added. Fluorescence is measured for each well at 1 second intervals, and the height of each fluorescence peak is compared to the height of the fluorescence peak induced by 3 nM orexin-A with vehicle in place of antagonist. For each antagonist, the IC50 value (the concentration of compound needed to inhibit 50% of the agonistic response) is determined. With the FLIPR Tetra, non-optimized and optimized conditions were used. Optimized conditions were achieved by adjustment of pipetting speed and cell splitting regime. The calculated IC50 values of the compounds may fluctuate depending on the daily cellular assay performance. Fluctuations of this kind are known to those skilled in the art.

human orexin-2 receptor = molecular target: T2, human orexin-2 receptor (Homo sapiens, UniProt O43614); experiment: as above; assay type: cell-based; settings: FLIPR2; CHO cells expressing human orexin-2 receptor; 3 nM orexin-A; read-out: OX2 IC50
T2 construct: expressed in transfected cells; host or cells: Chinese hamster ovary (CHO) cells, G418 selection
T2 sequence (O43614 1-444): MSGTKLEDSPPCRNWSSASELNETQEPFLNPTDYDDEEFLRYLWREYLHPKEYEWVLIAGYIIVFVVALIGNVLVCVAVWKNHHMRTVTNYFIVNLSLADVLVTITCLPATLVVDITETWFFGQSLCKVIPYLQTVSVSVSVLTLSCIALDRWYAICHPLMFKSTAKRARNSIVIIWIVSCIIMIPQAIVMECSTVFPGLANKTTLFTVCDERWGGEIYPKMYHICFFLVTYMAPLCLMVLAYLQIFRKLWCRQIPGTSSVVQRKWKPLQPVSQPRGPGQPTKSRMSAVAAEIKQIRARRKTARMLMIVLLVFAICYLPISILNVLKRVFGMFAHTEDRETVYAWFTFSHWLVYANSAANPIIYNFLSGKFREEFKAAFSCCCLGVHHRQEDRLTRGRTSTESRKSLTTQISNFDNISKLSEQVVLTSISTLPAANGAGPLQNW
Description: as §1, §2, §3, §4, §5, §6, §7, §8

Compound	IC50 (human orexin-1 receptor) [µM]	IC50 (human orexin-2 receptor) [µM]
O=C(NC[C@@H]1[C@H]2C[C@H]2CN1C(=O)c1ccccc1-c1ccccc1)c1cccc2occc12 [Example 2, Benzofuran-4-carboxylic acid[(1S,2S,5R)-3-(biphenyl-2-carbonyl)-3-aza-bicyclo[3.1.0]hex-2-ylmethyl]-amide]	0.034	0.102
Cc1nc(C(=O)N2C[C@@H]3C[C@@H]3[C@H]2CNC(=O)c2c(C)nc3sccn23)c(-c2ccccc2C)s1 [Example 11, 6-Methyl-imidazo[2,1-b]thiazole-5-carboxylic acid[(1S,2S,5R)-3-(2-methyl-5-o-tolyl-thiazole-4-carbonyl)-3-aza-bicyclo[3.1.0]hex-2-ylmethyl]-amide]	0.014	0.066
Cc1nc2sccn2c1C(=O)NC[C@@H]1[C@H]2C[C@H]2CN1C(=O)c1ccccc1-c1ccccc1F [Example 19, 6-Methyl-imidazo[2,1-b]thiazole-5-carboxylic acid[(1S,2S,5R)-3-(2′-fluoro-biphenyl-2-carbonyl)-3-aza-bicyclo[3.1.0]hex-2-ylmethyl]-amide]	0.022	0.174
Cc1ncc(C(=O)N2C[C@@H]3C[C@@H]3[C@H]2CNC(=O)c2c(C)nc3sccn23)c(-c2ccccc2)n1 [Example 23, 6-Methyl-imidazo[2,1-b]thiazole-5-carboxylic Acid[(1S,2S,5R)-3-(2-methyl-4-phenyl-pyrimidine-5-carbonyl)-3-aza-bicyclo[3.1.0]hex-2-ylmethyl]-amide]	0.035	0.338
Cc1nc2sccn2c1C(=O)NC[C@@H]1[C@H]2C[C@H]2CN1C(=O)c1ccccc1-c1csc(N)n1 [Example 24, 6-Methyl-imidazo[2,1-b]thiazole-5-carboxylic acid{(1S,2S,5R)-3-[2-(2-amino-thiazol-4-yl)-benzoyl]-3-aza-bicyclo[3.1.0]hex-2-ylmethyl}-amide]	0.102	0.647
Cc1cccc(-c2sc(Br)nc2C(=O)N2C[C@@H]3C[C@@H]3[C@H]2CNC(=O)c2c(C)nc3sccn23)c1 [Example 29, 6-Methyl-imidazo[2,1-b]thiazole-5-carboxylic acid[(1S,2S,5R)-3-(2-bromo-5-m-tolyl-thiazole-4-carbonyl)-3-aza-bicyclo[3.1.0]hex-2-ylmethyl]-amide]	0.004	0.027
Cc1nc2sccn2c1C(=O)NC[C@@H]1[C@H]2C[C@H]2CN1C(=O)c1ccccc1C1CCCCC1 [Example 31, 6-Methyl-imidazo[2,1-b]thiazole-5-carboxylic acid[(1S,2S,5R)-3-(2-cyclohexyl-benzoyl)-3-aza-bicyclo[3.1.0]hex-2-ylmethyl]-amide]	0.96	0.167
Cc1nc2sccn2c1C(=O)NC[C@@H]1[C@H]2C[C@H]2CN1C(=O)c1ccccc1-c1cccs1 [Example 32, 6-Methyl-imidazo[2,1-b]thiazole-5-carboxylic acid[(1S,2S,5R)-3-(2-thiophen-2-yl-benzoyl)-3-aza-bicyclo[3.1.0]hex-2-ylmethyl]-amide]	0.015	0.055
Cc1nc(-c2cccc(F)c2)c(C(=O)N2C[C@@H]3C[C@@H]3[C@H]2CNC(=O)c2c(C)nc3sccn23)s1 [Example 37, 6-Methyl-imidazo[2,1-b]thiazole-5-carboxylic acid{(1S,2S,5R)-3-[4-(3-fluoro-phenyl)-2-methyl-thiazole-5-carbonyl]-3-aza-bicyclo[3.1.0]hex-2-ylmethyl}-amide]	0.085	0.035
Cc1cccc(-c2sc(C)nc2C(=O)N2C[C@@H]3C[C@@H]3[C@H]2CNC(=O)c2cc(F)cc3c2OCOC3)c1 [Example 42, 6-Fluoro-4H-benzo[1,3]dioxine-8-carboxylic Acid[(1S,2S,5R)-3-(2-methyl-5-m-tolyl-thiazole-4-carbonyl)-3-aza-bicyclo[3.1.0]hex-2-ylmethyl]-amide]	0.049	0.012
Cc1cccc(-c2sc(C)nc2C(=O)N2C[C@@H]3C[C@@H]3[C@H]2CNC(=O)c2cccc3c2OC(C)(C)C3)c1 [Example 43, 2,2-Dimethyl-2,3-dihydro-benzofuran-7-carboxylic acid[(1S,2S,5R)-3-(2-methyl-5-m-tolyl-thiazole-4-carbonyl)-3-aza-bicyclo[3.1.0]hex-2-ylmethyl]-amide]	0.026	0.019
Cc1cccc(-c2sc(C)nc2C(=O)N2C[C@@H]3C[C@@H]3[C@H]2CNC(=O)c2cccc(C(F)(F)F)c2)c1 [Example 45, N-[(1S,2S,5R)-3-(2-Methyl-5-m-tolyl-thiazole-4-carbonyl)-3-aza-bicyclo[3.1.0]hex-2-ylmethyl]-3-trifluoromethyl-benzamide]	0.11	0.061

Next, values leading:

IC50 (human orexin-1 receptor) [µM]	IC50 (human orexin-2 receptor) [µM]	Compound
0.081	0.041	Cc1cccc(-c2sc(C)nc2C(=O)N2C[C@@H]3C[C@@H]3[C@H]2CNC(=O)c2c(C)noc2C)c1 [Example 51, 3,5-Dimethyl-isoxazole-4-carboxylic Acid[(1S,2S,5R)-3-(2-methyl-5-m-tolyl-thiazole-4-carbonyl)-3-aza-bicyclo[3.1.0]hex-2-ylmethyl]-amide]
0.155	0.228	Cc1cccc(-c2sc(C)nc2C(=O)N2C[C@@H]3C[C@@H]3[C@H]2CNC(=O)c2cccc3ccccc23)c1 [Example 52, Naphthalene-1-carboxylic acid[(1S,2S,5R)-3-(2-methyl-5-m-tolyl-thiazole-4-carbonyl)-3-aza-bicyclo[3.1.0]hex-2-ylmethyl]-amide]
0.026	0.018	Cc1cccc(-c2sc(C)nc2C(=O)N2C[C@@H]3C[C@@H]3[C@H]2CNC(=O)c2nccc3ccccc23)c1 [Example 54, Isoquinoline-1-carboxylic Acid[(1S,2S,5R)-3-(2-methyl-5-m-tolyl-thiazole-4-carbonyl)-3-aza-bicyclo[3.1.0]hex-2-ylmethyl]-amide]
0.037	0.057	Cc1cccc(-c2sc(C)nc2C(=O)N2C[C@@H]3C[C@@H]3[C@H]2CNC(=O)c2n[nH]c3ccccc23)c1 [Example 58, 1H-Indazole-3-carboxylic Acid[(1S,2S,5R)-3-(2-methyl-5-m-tolyl-thiazole-4-carbonyl)-3-aza-bicyclo[3.1.0]hex-2-ylmethyl]-amide]
0.021	0.009	Cc1nc(C(=O)N2C[C@@H]3C[C@@H]3[C@H]2CNC(=O)c2cccc3c2OC(C)(C)C3)c(-c2cccc(Cl)c2)s1 [Example 73, 2,2-Dimethyl-2,3-dihydro-benzofuran-7-carboxylic Acid{(1S,2S,5R)-3-[5-(3-chloro-phenyl)-2-methyl-thiazole-4-carbonyl]-3-aza-bicyclo[3.1.0]hex-2-ylmethyl}-amide]
0.084	0.048	Cc1nc(C(=O)N2C[C@@H]3C[C@@H]3[C@H]2CNC(=O)c2cccc(Br)c2)c(-c2cccc(Cl)c2)s1 [Example 74, 3-Bromo-N-{(1S,2S,5R)-3-[5-(3-chloro-phenyl)-2-methyl-thiazole-4-carbonyl]-3-aza-bicyclo[3.1.0]hex-2-ylmethyl}-benzamide]
